One block for each compound: values may come before it.
Tests used:
[1] = target: CDK4/CyclinD1 (Homo sapiens (Human), UniProt P11802); assay: Assay for inhibition of CDK4/CyclinD1 (Caliper microfluidic kinase assay); format: biochemical; settings: summary statement
Protocol: (§1) The CDK4 enzyme assay for IC50 determination was performed as follows. Microfluidic kinase detection technology (Caliper) was used to monitor the phosphorylation of peptide substrate by CDK4/CyclinD1. The total reaction volume was 15 μL containing buffer A (100 mM HEPES (pH 7.5), 0.1% BSA, 0.01% Triton X-100, 1 mM DTT, 10 mM MgCl2, 10 μM Sodium Orthovanadate, 10 μM Beta-Glycerophosphate), 200 μM ATP, 1 nM CDK4/CyclinD1 (Thermofisher, PR8064A), 1 μM FL-34 (5-FAM-[…]), and the test compound at appropriate dilutions in DMSO. All components were added to the 384-well plate (Corning, 4514), and incubated at Room Temperature for 3 hours. The reaction was terminated by addition of 15 μL Stop Buffer (180 mM HEPES (pH 7.5), 20 mM EDTA, Coating-3 reagent (PerkinElmer, 760050)). The plate was then loaded on Caliper EZ Reader (EZ Reader II, PerkinElmer, HD-4HYSG2772), and the reaction mixtures including substrate and product were sipped into the microfluidic chip for separation and detection. The IC50 values of the test compound were determined by fitting the inhibition curves by 4 parameter sigmoidal dose-response model using the Xlfit5/GraphPad Prism 5 software.

[2] = tested on: T47D breast cancer cells; assay: Anti-proliferation assay in T47D cell (Cyquant); format: cell-based, human; settings: for IC50: Homo sapiens, T47D, 144 h, anti-proliferation, day 6 after compound addition
Text: T47D is a human breast cancer cell line commonly used in biomedical research involving the hormonal expression of cancer cells. T47D cells are distinct from other human breast cancer cells in that their progesterone receptors (PR) are not regulated by estradiol, a hormone that is abundant within the cells themselves. T47D cells have been employed in studies of the effects of progesterone on breast cancer and the corresponding transcriptional regulation caused by introduced drugs. The cells have been noted to be extremely resistant to estrogens and antiestrogens.
T47D breast cancer cells from American Type Culture Collection (ATCC, HTB-133) were plated at 3000 cells/well in 96-well plates, and were incubated in RPMI 1640 medium (Gibco, 31800105) with 10% Fetal Bovine Serum (FBS, Biowest, FB-1058) at 37° C., 5% CO2. After overnight incubation, baseline values were measured of the samples from one plate using Cyquant reagent (Invitrogen, C35011) following manufacturer's recommendations. Cells were incubated with the detection reagent for 1 hour at 37° C., and then the fluorescence was measured with excitation at 485 nm and emission at 535 nm using Spectra Max M5 (Molecular Devices, HD-4HYSG3196). Other plates were dosed with compounds at a ten-point dose concentration from 10 μM to 0.51 nM in a 3-fold dilution scheme. On day 6 after compound addition, Cyquant reagent was added and the fluorescence was measured using Spectra Max M5. The IC50 values of the test compound's anti-proliferation activity were determined from the baseline subtracted viability readout curve using Xlfit5/GraphPad Prism 5 software.

[3] = target: CDK2/CyclinE1 (Homo sapiens (Human), UniProt P24941); assay: Assay for inhibition of CDK2/CyclinE1 (Caliper microfluidic kinase assay); format: biochemical; settings: summary statement
Protocol: The CDK2 enzyme assay for IC50 determination was performed as follows. Microfluidic kinase detection technology (Caliper) was used to monitor the phosphorylation of peptide substrate by CDK2/CyclinE1. The total reaction volume was 15 μL containing buffer A (100 mM HEPES (pH 7.5), 0.1% BSA, 0.01% Triton X-100, 1 mM DTT, 10 mM MgCl2, 10 μM Sodium Orthovanadate, 10 μM Beta-Glycerophosphate), 100 μM ATP, 5 nM CDK2/CyclinE1 (SignalChem, C29-18G), 5 μM FL-18 (5-FAM-QSPKKG-NH2), and the test compound at appropriate dilutions in DMSO. All components were added to the 384-well plate (Corning, 4514), and incubate at Room Temperature for 3 hours. The reaction was terminated by addition of 15 μL Stop Buffer (180 mM HEPES (pH 7.5), 20 mM EDTA, Coating-3 reagent (PerkinElmer, 760050)). The plate was loaded on Caliper EZ Reader (EZ Reader II, PerkinElmer, HD-4HYSG2772), and the reaction mixtures including substrate and product were sipped into the microfluidic chip for separation and detection. The IC50 values of the test compound were determined by fitting the inhibition curves by 4 parameter sigmoidal dose-response model using the Xlfit5/GraphPad Prism 5 software.

[4] = target: CDK6/CyclinD3 (Homo sapiens (Human), UniProt Q00534); assay: Assay for inhibition of CDK6/CyclinD3 (Caliper microfluidic kinase assay); format: biochemical; settings: summary statement
Protocol: as §1, with “The CDK6” for “The CDK4”, “by CDK6/CyclinD3.” for “by CDK4/CyclinD1.”, “volume is” for “volume was”, “Beta-Glycerophosphate), 300” for “Beta-Glycerophosphate), 200”, “ATP, 2” for “ATP, 1”, “nM CDK6/CyclinD3 (Carna, 04-107),” for “nM CDK4/CyclinD1 (Thermofisher, PR8064A),”

[5] = Brain penetration (stated in summary, no method); settings: summary statement
[6] = tested on: Phosphorylation of Retinoblastoma Protein (pRb) Ser807/811 in T47D cell; assay: Inhibition of phosphorylation of retinoblastoma protein (pRb) in T47D cell (ELISA); format: cell-based; settings: Homo sapiens, 24 hours incubation, read-out: Phospho T47D Ser807 IC50
Protocol: T47D breast cancer cells from American Type Culture Collection (ATCC, HTB-133) were plated at 40,000 cells/well in 96-well plates, and were incubated in RPMI 1640 medium (Gibco, 31800105) with 10% Fetal Bovine Serum (FBS, Biowest, FB-1058). Cells were then allowed to adhere overnight at 37° C., 5% CO2. The following day, compounds were titrated in a 3-fold dilution scheme, and the highest compound concentration tested was […]. After 24 hours incubation with compounds, cells were lysed in ice-cold lysis buffer containing phosphatase inhibitor cocktail and 1 mM PMSF. Cell lysates (50 μL/well) were then transferred to ELISA plates (pRb Ser807/811 ELISA kit, Cell Signaling, 13152 or pRb Ser780 ELISA kit, Cell Signaling, 13016)). Plates were incubated overnight at 4° C., with constant slow speed shaking. After incubation, plates were washed following manufacturer's recommendations, and then 100 μL reconstituted detection antibody was added to each well and incubated for 1 hour at 37° C. After incubation, plates were washed, and then 100 μL reconstituted HRP-linked secondary antibody was added to each well and incubated for 30 mins at 37° C. […] Plates were read on the Envision plate reader (PerkinElmer, 2104-0010) using the 96-well […] mode. IC50 values were calculated using 4 parameter sigmoidal dose-response model of Xlfit5/GraphPad Prism 5 software.

Sequence of CDK4/CyclinD1 (P11802 whole entry): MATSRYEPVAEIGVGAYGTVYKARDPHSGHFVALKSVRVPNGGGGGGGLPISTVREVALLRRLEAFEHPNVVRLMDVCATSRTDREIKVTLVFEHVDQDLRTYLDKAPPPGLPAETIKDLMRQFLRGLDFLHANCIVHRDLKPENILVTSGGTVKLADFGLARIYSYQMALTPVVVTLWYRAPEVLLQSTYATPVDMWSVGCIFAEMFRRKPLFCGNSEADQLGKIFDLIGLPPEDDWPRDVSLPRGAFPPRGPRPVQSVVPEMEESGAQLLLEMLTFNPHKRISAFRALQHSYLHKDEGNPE
Sequence of CDK4/CyclinD1 (P24385 whole entry partner): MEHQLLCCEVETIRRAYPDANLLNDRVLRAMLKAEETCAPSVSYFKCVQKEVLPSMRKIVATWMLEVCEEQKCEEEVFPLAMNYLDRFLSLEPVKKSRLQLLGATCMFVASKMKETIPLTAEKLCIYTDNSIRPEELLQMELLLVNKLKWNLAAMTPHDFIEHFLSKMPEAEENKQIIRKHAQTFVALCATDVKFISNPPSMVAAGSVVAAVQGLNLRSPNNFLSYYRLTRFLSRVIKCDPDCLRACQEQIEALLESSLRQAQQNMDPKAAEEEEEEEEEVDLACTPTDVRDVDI
Sequence of CDK6/CyclinD3 (Q00534 whole entry): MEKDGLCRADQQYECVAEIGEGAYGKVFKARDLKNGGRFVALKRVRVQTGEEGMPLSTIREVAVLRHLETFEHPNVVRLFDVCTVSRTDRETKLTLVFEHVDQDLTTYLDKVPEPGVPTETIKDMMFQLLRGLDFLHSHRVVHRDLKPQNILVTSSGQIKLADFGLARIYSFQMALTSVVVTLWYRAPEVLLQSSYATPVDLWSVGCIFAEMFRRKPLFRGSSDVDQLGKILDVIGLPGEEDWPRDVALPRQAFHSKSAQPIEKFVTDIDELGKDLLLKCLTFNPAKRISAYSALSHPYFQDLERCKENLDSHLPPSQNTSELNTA
Sequence of CDK6/CyclinD3 (P30281 whole entry partner): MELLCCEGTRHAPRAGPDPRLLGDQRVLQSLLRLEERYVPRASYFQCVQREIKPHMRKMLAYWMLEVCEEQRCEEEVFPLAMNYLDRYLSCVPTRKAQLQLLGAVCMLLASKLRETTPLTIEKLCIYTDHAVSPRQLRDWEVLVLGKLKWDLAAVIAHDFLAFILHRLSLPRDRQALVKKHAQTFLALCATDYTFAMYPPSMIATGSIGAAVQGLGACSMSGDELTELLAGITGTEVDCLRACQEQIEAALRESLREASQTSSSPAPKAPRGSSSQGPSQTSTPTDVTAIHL

SMILES: CC(C)c1cnn2ccc(-c3ccnc(Nc4ccc(N5CC[C@H](N(C)C)CC5=O)cn4)n3)cc12 [Compound A]
inhibition of CDK4 (in words) [1]: actively inhibits
anti-proliferation activities (in words) ([2]; summary statement): strong
inhibition of CDK2 (in words) [3]: actively inhibits
inhibition of CDK6 (in words) [4]: actively inhibits

SMILES: CC(C)N1CCN(c2ccc(Nc3nccc(-c4cc5c(ncn5C(C)C)c(F)n4)n3)nc2)CC1 [Compound B]
selectivity of CDK4 inhibition (in words) [1]: selectively inhibit
brain penetration (in words) [5]: excellent

SMILES: CC(C)c1cnn2ccc(-c3ccnc(Nc4ccc(N5CCC(N(C)C)CC5=O)cn4)n3)cc12 (centres unmarked) [Synthetic Example 1]
IC50 [2]: < 100 nM

IC50 [2]: < 100 nM
SMILES: CC(C)c1cnn2ccc(-c3ccnc(Nc4ccc(N5CC[C@@H](N(C)C)CC5=O)cn4)n3)cc12 [Synthetic Example 2]

SMILES: CC(C)c1cnn2ccc(-c3ccnc(Nc4ccc(N5CC[C@H](N(C)C)CC5=O)cn4)n3)cc12 [Synthetic Example 3]
IC50 [6]: < 100 nM
IC50 [2]: < 100 nM

SMILES: CC(C)N1CCN(c2ccc(Nc3nccc(-c4cc5c(ncn5C(C)C)c(F)n4)n3)nc2)CC1 [Synthetic Example 4]
IC50 [2]: < 100 nM

Source: patent publication US20240033264A1, “CDK INHIBITORS” (QILU REGOR THERAPEUTICS INC., priority 2020, published 2024)
